{
  "source": "patent US20250179056A1",
  "about": "“NOVEL SULFATE SALT FORMS OF ISOCHROMAN-IMIDAZOLE STRUCTURED ALPHA-2A ADRENOCEPTOR AGONIST” (ORION CORPORATION, priority 2022, published 2025)",
  "assay": "Slurry experiments (SLC, SL, SLT) started with crystalline form 1; wet powders analyzed by XRPD",
  "type": "physicochemical",
  "settings": "for Resulting crystalline form SLC: aged at 5° C. under magnetic stirring; for Resulting crystalline form SLT: aged at 40° C. in shaker at 700 rpm; for Resulting crystalline form SL: aged at room temperature under magnetic stirring",
  "description": "The slurry experiments (SLC, SL and SLT) were carried out with the crystalline form 1 in different conditions. 15 mg of starting material were mixed with 200 μl of solvent or solvent mixture (at a concentration of about 75 mg/ml). The mixture was homogenized by vortexing for 10 seconds. The resulting suspensions were aged at different conditions: a) at 5° C. under magnetic stirring (SLC), b) at room temperature under magnetic stirring (SL), and c) at 40° C. in the shaker at 700 rpm (SLT). During the aging time, the samples were checked regularly, and solvent was added if needed. After completing the aging time, the vials were opened, and the (wet) powders were analyzed by XRPD.",
  "key": {"[1]": {"settings": "slurry in 2-Butanone, about 75 mg/ml"}, "[2]": {"settings": "slurry in 2-Ethoxy ethanol, about 75 mg/ml"}, "[3]": {"settings": "slurry in 2-Methyltetrahydrofuran, about 75 mg/ml"}, "[4]": {"settings": "slurry in Acetone/Water (86:14 vol %), water activity 0.75, about 75 mg/ml"}, "[5]": {"settings": "slurry in Acetonitrile/Water (96:4 vol %), water activity 0.60, about 75 mg/ml"}, "[6]": {"settings": "slurry in Ethanol, about 75 mg/ml"}, "[7]": {"settings": "slurry in Ethanol/Water (26:74 vol %), water activity >0.9, about 75 mg/ml"}, "[8]": {"settings": "slurry in Methanol/Water (20:80 vol %), water activity >0.9, about 75 mg/ml"}, "[9]": {"settings": "slurry in THF/Water (90:10 vol %), water activity 0.88, about 75 mg/ml"}, "[10]": {"settings": "slurry in Water (water activity 1), about 75 mg/ml"}},
  "note": "Entries after “also recorded” stand apart in the source; their conditions may differ.",
  "data": [
    {"molecule": "COc1cccc2c1CCOC2C1=NCCN1.O=S(=O)(O)O", "note": "(stereo not shown) [Form 1, 2-(5-methoxyisochroman-1-yl)-4,5-dihydro-1H-imidazole sulfate crystalline form 1]", "values": [
      {"measurement": "Resulting crystalline form SLC", "setting": "[1]", "result": "Form 1"},
      {"measurement": "Resulting crystalline form SLT", "setting": "[1]", "result": "Form 1"},
      {"measurement": "Resulting crystalline form SL", "setting": "[1]", "result": "Form 1"},
      {"measurement": "Resulting crystalline form SLT", "setting": "[2]", "result": "Form 4"},
      {"measurement": "Resulting crystalline form SL", "setting": "[2]", "result": "Form 4"},
      {"measurement": "Resulting crystalline form SLC", "setting": "[3]", "result": "Form 1"},
      {"measurement": "Resulting crystalline form SLT", "setting": "[3]", "result": "Form 1"},
      {"measurement": "Resulting crystalline form SL", "setting": "[3]", "result": "Form 1"},
      {"measurement": "Resulting crystalline form SLC", "setting": "[4]", "result": "Form 1"},
      {"measurement": "Resulting crystalline form SLT", "setting": "[4]", "result": "Form 1"},
      {"measurement": "Resulting crystalline form SL", "setting": "[4]", "result": "Form 1"},
      {"measurement": "Resulting crystalline form SLC", "setting": "[5]", "result": "Form 1"},
      {"measurement": "Resulting crystalline form SLT", "setting": "[5]", "result": "Form 1"},
      {"measurement": "Resulting crystalline form SL", "setting": "[5]", "result": "Form 1"},
      {"measurement": "Resulting crystalline form SLC", "setting": "[6]", "result": "Form 1"},
      {"measurement": "Resulting crystalline form SLT", "setting": "[6]", "result": "Form 1"},
      {"measurement": "Resulting crystalline form SL", "setting": "[6]", "result": "Form 1"},
      {"measurement": "Resulting crystalline form SLC", "setting": "[7]", "result": "Form 2; also recorded: (+Form 1)"},
      {"measurement": "Resulting crystalline form SLT", "setting": "[7]", "result": "Form 2"},
      {"measurement": "Resulting crystalline form SL", "setting": "[7]", "result": "Form 2"},
      {"measurement": "Resulting crystalline form SLC", "setting": "[8]", "result": "Form 2"},
      {"measurement": "Resulting crystalline form SLT", "setting": "[8]", "result": "Form 2"},
      {"measurement": "Resulting crystalline form SL", "setting": "[8]", "result": "Form 2"},
      {"measurement": "Resulting crystalline form SLC", "setting": "[9]", "result": "Form 1"},
      {"measurement": "Resulting crystalline form SLT", "setting": "[9]", "result": "Form 1"},
      {"measurement": "Resulting crystalline form SLC", "setting": "[10]", "result": "Form 2"},
      {"measurement": "Resulting crystalline form SLT", "setting": "[10]", "result": "Form 2"},
      {"measurement": "Resulting crystalline form SL", "setting": "[10]", "result": "Form 2"}
    ]}
  ]
}
